# Test results taken from patent US4789736A, “Complexes of technetium-99m with propylene amine oximes” (Amersham International plc, priority 1985, dated 1988).
# Entries after “also recorded” stand apart in the source; their conditions may differ.
# Experiments:
# [1] = Whole body distribution in human volunteers; type: in vivo, human volunteer subjects; conditions: unseparated dl/meso mixture; for Whole body distribution, Bladder / Whole body distribution, Brain / Whole body distribution, Liver: 2 hrs p.i., human
# Text: (§1) The following data allows comparison of the relative performance of the complexes of compounds 1 and 2 (an unseparated dl/meso mixture in each case) in human volunteer subjects.
# (ii) Whole body distribution
# [2] = Animal biodistribution of Tc-99m complexes of ligands, no separation of stereoisomers (Example 22); type: in vivo, rats; conditions: for % id/organ, Blood / % id/organ, Brain / % id/organ, Heart / % id/organ, Liver: i.v. rats, mean of 3 animals
# Procedure: The ratio of diastereoisomers in the Tc-99m complexes used in this experiment is not known.
# The results at 2 minutes and 1 hour p.i. are the mean of 3 animals.
# The results at 2 hours p.i. are the mean of 2 animals.
# [3] = Rat biodistribution of Tc-99m complexes from isolated stereoisomers (Example 24); conditions: d- versus l-enantiomer; rats
# Procedure: 0.1 ml of the Tc-99m complex solution was administered by intravenous injection (lateral tail vein) to each of five or six rats (140-220 g). The injected dose was equivalent to approximately 1 mCi of Tc-99m. Three rats were sacrificed at 2 minutes post injection, and 3 at 1 hour or 2 at 2 hours post injection. At dissection, the organs and blood samples shown in the following table were taken, and assayed for radioactivity. The uptake in each organ or tissue was calculated as a percentage of the total activity recovered.
# Data in Tables (a) and (b) are the mean from 3 animals at each time point.
# [4] = Blood clearance in human volunteers; type: in vivo, human volunteer subjects; conditions: for % id in blood: unseparated dl/meso mixture, human
# Text: as §1
# leucocytes = assay: In vitro labelling of leucocytes; type: cell-based; conditions: ambient temperature
# Procedure: A solution of the technetium-99m complex of compound 1 was made as follows. A vial contained 0.5 mg compound 1; […] stannous chloride dihydrate; and 4.5 mg sodium chloride; freeze-dried and sealed under nitrogen. To this was added 5.0 ml of sodium pertechnetate eluate from a 135mCi technetium generator.
# Mixed leucocytes were obtained from 34 ml of acid citrate anticoagulated blood by dextran sedimentation. These were washed twice and resuspended in 2.0 ml phosphate buffered saline containing approximately 0.25 mg/ml prostaglandin El. The suspension was incubated with 0.2 ml of the solution of the technetium-99m complex of compound 1. Incubation was at ambient temperature, and samples were removed at intervals for analysis. After two minutes, 60% of the radioactivity was associated with blood cells; after 5 minutes, 83% and after 10 minutes, 89%.
# [5] = Tomographic imaging of the brain in man; type: in vivo, normal volunteers (human); conditions: in words; unseparated dl/meso mixture; human
# Procedure: Tomographic images of the brain were determined using the same complexes in normal volunteers. The device used was a single head rotating gamma camera and minicomputer system. 64 25-second images were accumulated by the gamma camera during 360° circular rotation of the head and shoulders of the volunteer.
# [6] = Clinical comparison of dl and meso diastereoisomers of Compound 1, whole body scanning (Example 25a); type: in vivo, normal volunteer subjects (human); conditions: 20 minutes p.i.; mean; human
# Procedure: All clinical studies, involving comparisons between the Tc-99m complexes of dl and meso, and d,l and dl stereoisomers of Compound 1 were conducted in normal volunteer subjects at Aberdeen Royal Infirmary.
# (a) Comparison of dl and meso diastereoisomers of Compound 1
# Data is then taken from area of interest studies employing a whole body scanning device.
# [7] = In vitro stability of Tc-99m complexes (radiochemical purity by thin layer chromatography); type: physicochemical; conditions: for remaining at 2 min: 2 min post formation; for remaining at 2 min / remaining at 1 h / remaining at 2 h: dl/meso mixture, read-out: % of the desired Tc-99m complex; for remaining at 1 h: 60 min post formation; for remaining at 2 h: 120 min post formation; for in vitro stability of the Tc-99m complex: in words, complex of compound 1 versus compound 2
# Procedure: Glass fibre strips impregnated with silica gel form the stationary phase of a fast and accurate analytical system. Two strips, each measuring 20 cm×2 cm were used in each analysis. Approximately five microliters of the solution containing the complex was applied 1 cm from the base of each strip, and one strip developed with saline, the other with methylethylketone (MEK).
# Determination of the distribution of radioactivity along each strip was conducted by means of a 100 channel analysis system interfaced to a Nova computer, programmed for peak integration. The Table below indicates the RF values of the major components of the Tc-99m solutions. The observed radiochemical purity of the Tc-99m complexes was generally greater than 80%.
# Radiochemical purity determinations by thin layer chromatography were carried out at several time points following formation of the technetium complexes of compounds 1 and 2 (a dl/meso mixture in each case) to determine the stability of the complexes.
"Whole body distribution, Bladder [1]","Whole body distribution, Brain [1]","Whole body distribution, Liver [1]","% id/organ, Blood ([2]; 2 min pi)","% id/organ, Brain ([2]; 2 min pi)","% id/organ, Heart ([2]; 2 min pi)","% id/organ, Liver ([2]; 2 min pi)","% id/organ, Blood ([2]; 1 hr pi)","% id/organ, Brain ([2]; 1 hr pi)","% id/organ, Heart ([2]; 1 hr pi)","% id/organ, Liver ([2]; 1 hr pi)",% id in blood ([4]; 14 minutes post injection),% id in blood ([4]; 40 minutes post injection),% id in blood ([4]; 60 minutes post injection),% id in blood ([4]; 250 minutes post injection),remaining at 2 min [7],remaining at 1 h [7],remaining at 2 h [7],SMILES,quality of tomographic images of the brain [5],in vitro stability of the Tc-99m complex [7],other results
3.9,3.70,23.35,16.7 % id/organ,1.5 % id/organ,0.4 % id/organ,8.4 % id/organ,19.6 % id/organ,1.2 % id/organ,0.2 % id/organ,5.4 % id/organ,9.54 % id,7.73 % id,6.38 % id,5.26 % id,92%,87%,79%,"CC(=NO)C(C)NCC(C)(C)CNC(C)C(C)=NO (racemic) [Compound 1, 4,8-diaza-3,6,6,9-tetramethylundecane-2,10-dione bis oxime]",Good quality tomographic images of the brain,only slow in vitro degradation,"removal of radioactivity from brain in humans ([1]; in words): Slow removal of radioactivity from brain; uptake in the brain of humans ([1]; in words): Good uptake in the brain; uptake in the brain of rats ([2]; in words, unseparated dl/meso mixture): Good uptake in the brain; difference in brain uptake of the d- and l-enantiomers (factor) [3]: 1.6; radioactivity associated with blood cells (leucocytes; after 5 minutes): 83%; radioactivity associated with blood cells (leucocytes; after 10 minutes): 89%; radioactivity associated with blood cells (leucocytes; after two minutes): 60%; % injected activity, Bladder + Urine [6]: 1.4 % injected activity; % injected activity, Brain [6]: 1.95 % injected activity; % injected activity, Kidneys [6]: 1.95 % injected activity; % injected activity, Liver [6]: 13.0 % injected activity"
21.02,3.48,13.21,14.6 % id/organ,1.6 % id/organ,0.5 % id/organ,10.9 % id/organ,12.4 % id/organ,1.4 % id/organ,0.5 % id/organ,4.9 % id/organ,11.06 % id,6.9 % id,5.93 % id,3.98 % id,82%,60%,47%,"CC(=NO)C(C)NCCCNC(C)C(C)=NO (racemic) [Compound 2, 4,8-Diaza-3,9-dimethylundecane-2,10-dione bis oxime]","less good, due to a higher level of background radiation",greatly inferior to that of the complex of compound 1; also recorded: Far better in vitro stability; also recorded: rapid in vitro degradation,"blood and tissue background clearance of activity in humans ([4]; in words, compound 1 versus complex of compound 2): Better blood and tissue background clearance; percent of the Tc-99m not in the form of the complex, Compound 2 relative to Compound 1 ([7]; at all times): more than twice as great"
